From the supplement of paper PMC11208160

Assay: recombinant barcode read abundance after kanamycin selection (control-corrected) (log10(CPM+1)); higher = more efficient recombination; sequences stand for … in AGTGCAGAGAAAATCGGCCAGTTTTCTCTGCCTGCAGTCCGCATGCCGT…AGATTTATGCAGCGGACTGCCTTTCTCCCAAAGTGATAAACCGGACAGTATCATGGACCGGTTTTCCCGGTAATCCGTATTTGCAAGGTTGGTTTCACT; site = the 11-nt target
Description: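 Pooled E. coli target-specificity screen for the IS621 bridge recombinase. Each library plasmid pairs an 11-nt target (CT core) with a bridge RNA whose target-binding loop (9-nt LTG + 4-nt RTG) is reprogrammed; the rest of the 177-nt WT IS621 bridge RNA scaffold is fixed. The plasmid is co-electroporated with a WT donor plasmid; recombinase is induced with 0.1 mM IPTG and recombinants are selected on kanamycin. Recombinant barcodes are sequenced, converted to CPM, averaged over two biological replicates and corrected by the unselected control CPM. Molecule = full bridge RNA written as DNA: LTG = specificity nt 1-9, RTG = reverse complement of specificity nt 8-11, in the WT scaffold.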
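Note: IS621 recombinase and bridge RNA in Escherichia coli cells.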

In order of falling “recombinant barcode read abundance (log10)” value:
1. AGACAGACTTGGGTTCTAACCTGTTGCGT (site AGACAGACTAC)  3.32
2. AGACGACCTTGGGTTCTAACCTGTTGCGG (site AGACGACCTCC)  2.95
3. AGACCCTCTTGGGTTCTAACCTGTTGCCT (site AGACCCTCTAG)  2.91
4. ACTGGGCCTTGGGTTCTAACCTGTTGCGA (site ACTGGGCCTTC)  2.67
5. AGAAAGGCTTGGGTTCTAACCTGTTGCGC (site AGAAAGGCTGC)  2.32
6. AGACTGACTTGGGTTCTAACCTGTTGCGG (site AGACTGACTCC)  2.18
7. AGACTCCCTTGGGTTCTAACCTGTTGCAC (site AGACTCCCTGT)  2.08
8. AGAAGTCCTTGGGTTCTAACCTGTTGCGG (site AGAAGTCCTCC)  1.91
9. ACTGAGTCTTGGGTTCTAACCTGTTGCAA (site ACTGAGTCTTT)  1.87
10. ACTTGACCTTGGGTTCTAACCTGTTGCAG (site ACTTGACCTCT)  1.83
11. ACTGCGTCTTGGGTTCTAACCTGTTGCCT (site ACTGCGTCTAG)  1.6
12. AGACTAACTTGGGTTCTAACCTGTTGCCT (site AGACTAACTAG)  1.54
13. ACTCGCTCTTGGGTTCTAACCTGTTGCAC (site ACTCGCTCTGT)  1.5
14. ACTGATTCTTGGGTTCTAACCTGTTGCCT (site ACTGATTCTAG)  1.34
15. AGAAGTCCTTGGGTTCTAACCTGTTGCGG (site AGAAGTCCTCT)  1.32
16. AGACCCTCTTGGGTTCTAACCTGTTGCCT (site TGACCCTCTAG)  1.3
17. AGAACGTCTTGGGTTCTAACCTGTTGCCT (site AGAACGTCTAG)  1.09
18. ACTGTAACTTGGGTTCTAACCTGTTGCTT (site ACTGTAACTAA)  1.06
19. AGAAAAGCTTGGGTTCTAACCTGTTGCAA (site AGAAAAGCTTT)  1.06
20. AGACTGGCTTGGGTTCTAACCTGTTGCCT (site AGACTGGCTAG)  1.03
21. ACTGCTCCTTGGGTTCTAACCTGTTGCCT (site ACTGCTCCTAG)  0.881
22. AGACCATCTTGGGTTCTAACCTGTTGCCT (site AGACCATCTAG)  0.751
23. AGACCCTCTTGGGTTCTAACCTGTTGCCT (site CGACCCTCTAG)  0.728
24. ACTGCGGCTTGGGTTCTAACCTGTTGCCT (site ACTGCGGCTAG)  0.617
25. ACTTGTTCTTGGGTTCTAACCTGTTGCCT (site ACTTGTTCTAG)  0.567
26. ACTTCTGCTTGGGTTCTAACCTGTTGCCT (site ACTTCTGCTAG)  0.528
27. ACTTTAGCTTGGGTTCTAACCTGTTGCTT (site ACTTGAACTAA)  0.438
28. ACTTTAGCTTGGGTTCTAACCTGTTGCTT (site ACTTTAGCTAA)  0.399
29. ACTCTGGCTTGGGTTCTAACCTGTTGCCT (site ACTCTGGCTAG)  0.372
30. AGAACTCCTTGGGTTCTAACCTGTTGCTG (site AGAACTCCTCA)  0.323
31. AGACCCTCTTGGGTTCTAACCTGTTGCCT (site GGACCCTCTAG)  0.304
32. AGAAAAGCTTGGGTTCTAACCTGTTGCAA (site CATGCTTCTAG)  0.295
33. AGACTAACTTGGGTTCTAACCTGTTGCCT (site ATACTAACTAG)  0.29
34. ACTCTGGCTTGGGTTCTAACCTGTTGCCT (site ACCCTGGCTAG)  0.256
35. ACTCTGGCTTGGGTTCTAACCTGTTGCCT (site ACGCTGGCTAG)  0.254
36. AGACTGACTTGGGTTCTAACCTGTTGCGG (site TCCAAATCTAG)  0.232
37. ACTGATTCTTGGGTTCTAACCTGTTGCCT (site ACTGATACTAG)  0.214
38. ACTTGTTCTTGGGTTCTAACCTGTTGCCT (site CCTTGTTCTAG)  0.202
39. ACTGGGCCTTGGGTTCTAACCTGTTGCGA (site ACTCGGCCTTC)  0.191
40. AGACTGGCTTGGGTTCTAACCTGTTGCCT (site CGACAGGCTAG)  0.176
41. AGACCATCTTGGGTTCTAACCTGTTGCCT (site AGATCATCTAA)  0.162
42. ACTTGTTCTTGGGTTCTAACCTGTTGCCT (site GCTTGTTCTAG)  0.157
43. ACTGCGGCTTGGGTTCTAACCTGTTGCCT (site AATTCGGCTAG)  0.136
44. AGACTAACTTGGGTTCTAACCTGTTGCCT (site AAACTAACTAG)  0.124
45. ACTGCGTCTTGGGTTCTAACCTGTTGCCT (site ACTCCGTCTAG)  0.119
46. ACTGTAACTTGGGTTCTAACCTGTTGCTT (site ACTATAACTAA)  0.102
47. AGAAGTCCTTGGGTTCTAACCTGTTGCGG (site AGAAGTCCTCG)  0.101
48. ACTTGTTCTTGGGTTCTAACCTGTTGCCT (site TCTTGTTCTAG)  0.0997
49. AGAAGTCCTTGGGTTCTAACCTGTTGCGG (site AGAAGTCCTCA)  0.0978
50. ACTCTGGCTTGGGTTCTAACCTGTTGCCT (site ACACTGGCTAG)  0.0916
51. ACTGCTCCTTGGGTTCTAACCTGTTGCCT (site CTCTGAGCTCT)  0.0903
52. AGACTAACTTGGGTTCTAACCTGTTGCCT (site ACACTAACTAG)  0.0816
53. ACTGAGTCTTGGGTTCTAACCTGTTGCAA (site ACTGAGTCTAT)  0.0772
54. AGACTCCCTTGGGTTCTAACCTGTTGCAC (site ACACGCCCTGT)  0.0745
55. ACTGTAACTTGGGTTCTAACCTGTTGCTT (site ACTTTAACTAA)  0.0634
56. ACTTCTGCTTGGGTTCTAACCTGTTGCCT (site ACTTCACCTAG)  0.0609
57. ACTGATTCTTGGGTTCTAACCTGTTGCCT (site ACTGATCCTAG)  0.0546
58. ACTGATTCTTGGGTTCTAACCTGTTGCCT (site ACTGATGCTAG)  0.0541
59. AGAACTCCTTGGGTTCTAACCTGTTGCTG (site TCTTGCTCTAG)  0.0485
60. AGAAAGGCTTGGGTTCTAACCTGTTGCGC (site GTGGGCACTAG)  0.0408
61. ACTCGCTCTTGGGTTCTAACCTGTTGCAC (site GGGACTACTCG)  0.0345
62. AGACAGACTTGGGTTCTAACCTGTTGCGT (site CAGAGCTCTCG)  0.0309
63. AGAACGTCTTGGGTTCTAACCTGTTGCCT (site AGAATGTCTAG)  0.0292
64. ACTTGACCTTGGGTTCTAACCTGTTGCAG (site ATTTGACCTCG)  0.0223
65. ACTGTAACTTGGGTTCTAACCTGTTGCTT (site ACTCTAACTAA)  0.0186
66. AGACGACCTTGGGTTCTAACCTGTTGCGG (site GTCATGTCTGA)  0.016
